Here are results for 21 molecules from publication PMC10146949, “Cytotoxicity Profiles and Neuroprotective Properties of the Novel Ifenprodil Analogues as Sigma Ligands” (Molecules, 2023).

≈ marks a conversion by molar mass, not a printed value. Like-named read-outs stand apart in the source and are kept apart here.

Data set [1] addresses T1, S1R (Cavia porcellus, UniProt Q60492).
T1 construct: Fresh guinea pig brain cortex was homogenized in ice-cold Tris (50 mM, pH 7.4); tissue ENVIGO RMS S.R.L., Udine, Italy (animals); host or cells: male Dunkin-Hartley guinea pig brain cortex membranes
Briefly: S1R radioligand binding assay, [3H](+)-pentazocine, guinea pig brain cortex homogenates. To be noted: for S2R/S1R selectivity ratio: ratio of Ki S2R to Ki S1R.
Protocol: The bound radioactivity has been determined using a Beckman LS 6500 liquid scintillation counter (Beckman Coulter, Brea, CA, USA).
The test compound solutions were prepared by dissolving approximately 10 µmol of the test compound in DMSO to obtain a 10 mM stock solution.
Fresh guinea pig brain cortex was homogenized in ice-cold Tris (50 mM, pH 7.4) containing cold 0.32 M sucrose with a Potter-Elvehjem glass homogenizer. […] The final pellet was resuspended in ice-cold Tris buffer, and frozen at −80 °C. The protein concentration was determined by the method of Bradford [42].
Bound and free radioligand were separated by fast filtration under reduced pressure using a Millipore filter apparatus through Whatman GF 6 glass fiber filters, which were presoaked in a 0.5% poly(ethyleneimine) water solution for 120 min. Each filter paper was rinsed three times with 3 mL of ice-cold Tris buffer (50 mM, pH 7.4), dried at room temperature, and incubated overnight with 3 mL of Ultima Gold MV Scintillation cocktail into pony vials.
The Ki-values were calculated with the program GraphPad Prism® 6.0 (GraphPad Software, San Diego, CA, USA). The Ki-values are given as the mean value ± SD from at least two independent experiments performed in duplicate.

Data set [2] has as its target T2, S2R (Rattus norvegicus, UniProt Q5U3Y7).
T2 construct: A few rat livers were homogenized in cold 0.32 M sucrose with a Potter-Elvehjem glass homogenizer; tissue ENVIGO RMS S.R.L., Udine, Italy (animals); host or cells: Sprague Dawley rat liver membranes
T2 sequence (Q5U3Y7 1-176): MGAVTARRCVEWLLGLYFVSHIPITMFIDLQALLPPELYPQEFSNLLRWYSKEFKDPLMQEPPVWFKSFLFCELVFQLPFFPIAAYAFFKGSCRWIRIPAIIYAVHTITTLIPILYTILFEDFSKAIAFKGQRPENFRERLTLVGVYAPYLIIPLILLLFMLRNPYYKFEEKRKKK
Briefly: S2R radioligand binding assay, [3H]DTG, rat liver membranes.

Data set [3] can be described thus: Hydrogen peroxide scavenging. Particulars: H2O2 2 mM, 230 nm.
A further data set in a line: ABTS radical scavenging. To be noted: ABTS 7 mM ethanolic, 45 min, 735 nm. On the procedure: The compounds’ antioxidant capacity was evaluated by bleaching the green colored ethanolic solution of ABTS [41]. Test compounds (300 μL) were diluted as follows: 0.01, 0.025, 0.05, 0.1, and 0.2 mg/mL and added to 2.7 mL of ethanolic solution of ABTS (7 mM). These mixtures were incubated for 45 min at room temperature, and the absorbances were recorded at λ = 735 nm against the ABTS solution. The results were obtained as the percent of inhibition (% IC) of ABTS radical, calculated by the following formula. % IC = [(Abs ABTS − Abs Sample)/Abs ABTS] × 100
Data were expressed as mean value ± SD, and the assay was performed in triplicate.
The % IC was used to determine the IC50 values.

Data set [4] concerns NRF2 gene expression in SH-SY5Y cells. Briefly: Real-Time PCR of NRF2 mRNA levels. Particulars: 12.5 µM, 12 h; for effect on NRF2 expression (in words): vs DMSO.
Protocol: (§1) Total RNA (500 ng) was primed with hexameric random primers and retrotranscribed into cDNA with M-MLV reverse transcriptase (Thermo Fisher Scientific, Waltham, MA, USA). The normalization of targets’ gene expression was performed against the housekeeping gene RPL13A. Real-Time PCRs were performed by using iQ SYBR Green Supermix and CFX96 Real-Time PCR detection system (Bio-Rad Laboratories, Redmond, WA, USA). The relative expression levels were calculated using the 2^−∆∆CT method. An unpaired T-test was used to determine statistical significance. Values are presented as mean and error bars indicate standard errors (SE). The results are representative of two independent experiments in triplicate.
Data set [5] has as its system SOD1 gene expression in SH-SY5Y cells. Briefly: Real-Time PCR of SOD1 mRNA levels. To be noted: 12.5 µM, 12 h; for effect on SOD1 expression (in words): vs DMSO.
Protocol: as §1
The nature of data set [6]: Cytotoxicity, resazurin cell viability test. Type of data set: cell-based, human. Particulars: human.
Protocol: Cell viability was tested by using Resazurin (SERVA Electrophoresis GmbH, Heidelberg, Germany), which in metabolically active cells is reduced to Resufurin, a redox indicator, whose fluorescence is proportional to the number of live cells [43, 44].
The percentage of viability was calculated after subtraction of the background (obtained by killing the cells), on the basis of the ratio between the fluorescence values of the cells incubated with a compound and the fluorescence values of cells incubated with the solvent (1% DMSO). The viability of cells incubated with 1% DMSO was considered to be equivalent to 100%.
The statistical analysis was carried out with GraphPad Prism® 6.0 (GraphPad Software, Inc, La Jolla, CA, USA) software using an unpaired t-test. p < 0.05 was considered statistically significant. Cytotoxicity concentrations (IC50s) were determined from dose-response curves analyzed by using GraphPad Prism software.
Data set [7] concerns the target S1R. Particulars: cited from earlier work.
Data set [8] concerns the target S2R. Also on record: method as in PMID 31319263. Particulars: ifenprodil, Table 2 footnote b; cited from earlier work.
For data set [9], the system named is S1R. Nature of the data set: S1R affinity taken from the literature. The class given is binding. To be noted: ifenprodil, from literature Ki values. The text has this: Table 2 Binding affinities towards S1R and S2R, for compounds 5a–o.
The subject of another data set is SH-SY5Y cells. Briefly: Cytotoxicity, resazurin cell viability test. The class given is cell-based, human.

T1 sequence (Q60492 whole entry): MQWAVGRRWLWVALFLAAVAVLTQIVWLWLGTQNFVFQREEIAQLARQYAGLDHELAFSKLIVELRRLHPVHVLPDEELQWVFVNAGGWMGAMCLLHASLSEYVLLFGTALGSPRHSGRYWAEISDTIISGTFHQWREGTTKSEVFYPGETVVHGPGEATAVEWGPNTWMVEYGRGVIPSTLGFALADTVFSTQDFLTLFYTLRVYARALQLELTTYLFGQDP

As for `CC(C(=O)c1ccccc1)N1CCCN(Cc2ccccc2)CC1` (stereo not drawn) [5a, 2-(4-Benzyl-1,4-diazepan-1-yl)-1-phenylpropan-1-one], at S1R [1], the affinity corresponds to a Ki of 69 ± 14 nM and the S2R/S1R selectivity ratio stood at 1.6. Moreover, at S2R [2] (read-out: Ki S2R), the Ki amounted to 108 ± 21 nM.

The molecule `CC(C(=O)c1ccccc1)N1CCN(c2ccccc2)CC1` (stereo not drawn) [5b, 2-(4-Phenylpiperazin-1-yl)-1-phenylpropan-1-one] showed a melting point of 105 to 106 °C. Moreover, the S2R/S1R selectivity ratio on S1R [1] stood at 0.05. For the same molecule, on S1R [1] (read-out: Ki S1R), the Ki worked out at 2930 ± 1150 nM. For the same molecule, the Ki at S2R [2] (read-out: Ki S2R) was 158 ± 30 nM.

For the molecule `CC(C(=O)c1ccccc1)N(C)CCCCc1ccccc1` (stereo not drawn) [5c, 2-(Methyl(4-phenylbutyl)amino)-1-phenylpropan-1-one], the S2R/S1R selectivity ratio on S1R [1] is 0.15. In addition, the Ki at S1R [1] (read-out: Ki S1R) is 4720 ± 1690 nM; on S2R [2] (read-out: Ki S2R) it was 733 ± 106 nM.

Consider `CC(C(=O)c1ccccc1)N1CCN(Cc2ccccc2)CC1` (stereo not drawn) [5d, 2-(4-Benzylpiperazin-1-yl)-1-phenylpropan-1-one], for which the “IC50 H2O2” value in [3] is 14.56 ± 0.18 µg/mL (≈ 47.2 µM). Also, in the data set “ABTS radical scavenging”, the “IC50 ABTS” value turned out to be 2.854 ± 0.11 µg/mL (≈ 9.25 µM). Further, the Ki was 8 ± 1 nM at S1R [1] and 302 ± 65 nM at S2R [2] (read-out: Ki S2R). Besides, the S2R/S1R selectivity ratio on S1R [1] turned out to be 38. Also, the “NRF2 mRNA levels, fold increase compared to DMSO” value in data set [4] was 1.7 fold. Further, in [5], the “SOD1 mRNA levels, fold increase compared to DMSO” value came to 1.3 fold. This molecule also returned an IC50 in data set [6] (SH-SY5Y cells) of 118000 nM.

Take `COc1ccc(C(=O)C(C)N2CCCN(Cc3ccccc3)CC2)cc1` (stereo not drawn) [5e, 2-(4-Benzyl-1,4-diazepan-1-yl)-1-(4-methoxyphenyl)propan-1-one]: the “IC50 H2O2” value in [3] came to 12.65 ± 0.21 µg/mL (≈ 35.9 µM). Further, in “ABTS radical scavenging”, the “IC50 ABTS” value came out at 2.495 ± 0.09 µg/mL (≈ 7.08 µM). Also, at S1R [1], the Ki worked out at 12 ± 2 nM and the S2R/S1R selectivity ratio was 8.1. This molecule yielded a Ki at S2R [2] of 97 ± 17 nM. For the same molecule, the “effect on NRF2 expression (in words)” value in data set [4] was “did not change its expression significantly”. For the same molecule, the “effect on SOD1 expression (in words)” value in [5] is reported as “did not significantly alter”. The IC50 in [6] (SH-SY5Y cells) amounted to 74000 nM.

Take `COc1ccc(C(=O)C(C)N2CCN(c3ccccc3)CC2)cc1` (stereo not drawn) [5f, 2-(4-Phenylpiperazin-1-yl)-1-(4-methoxyphenyl)propan-1-one]: the melting point lay in the range of 117 to 119 °C. The S2R/S1R selectivity ratio on S1R [1] is listed as 0.53. Also, the Ki on S1R [1] (read-out: Ki S1R) amounted to 1860 ± 987 nM. Also, on S2R [2] (read-out: Ki S2R), the Ki was 989 ± 337 nM.

For `COc1ccc(C(=O)C(C)N(C)CCCCc2ccccc2)cc1` (stereo not drawn) [5g, 1-(4-Methoxyphenyl)-2-(methyl(4-phenylbutyl)amino)propan-1-one], the S2R/S1R selectivity ratio on S1R [1] was 3.3. In addition, the figures for the Ki at S1R [1] (read-out: Ki S1R) and on S2R [2] (read-out: Ki S2R) were 117 ± 18 nM and 386 ± 110 nM, respectively.

For the molecule `COc1ccc(C(=O)C(C)N2CCN(Cc3ccccc3)CC2)cc1` (stereo not drawn) [5h, 2-(4-Benzylpiperazin-1-yl)-1-(4-methoxyphenyl)propan-1-one], the “IC50 H2O2” value in data set [3] was found to be 466.24 ± 1.36 µg/mL (≈ 1380 µM). For the same molecule, the Ki stood at 1.4 ± 0.2 nM on S1R [1] and 84 ± 31 nM on S2R [2]. In addition, in data set [4], the “effect on NRF2 expression (in words)” value is on record as “significant decrease”. In addition, in data set [5], the “effect on SOD1 expression (in words)” value is reported as “dramatically reduced”. The molecule further yielded an IC50 in data set [6] (SH-SY5Y cells) of 117000 nM.

Take `CC(C(=O)c1ccc(O)cc1)N1CCCN(Cc2ccccc2)CC1` (stereo not drawn) [5i, 2-(4-Benzyl-1,4-diazepan-1-yl)-1-(4-hydroxyphenyl)propan-1-one]: the “IC50 H2O2” value in data set [3] stood at 13.11 ± 0.24 µg/mL (≈ 38.7 µM). Also, the “IC50 ABTS” value in the data set “ABTS radical scavenging” was found to be 2.603 ± 0.09 µg/mL (≈ 7.69 µM). Besides, at S1R [1], the Ki was determined as 19 ± 3 nM and the S2R/S1R selectivity ratio is listed as 1.1. Besides, at S2R [2], the affinity corresponds to a Ki of 22 ± 4 nM. In addition, the “NRF2 mRNA levels, fold increase compared to DMSO” value in data set [4] came out at 2.8 fold. In addition, the “effect on SOD1 expression (in words)” value in data set [5] was “did not significantly alter”. Half-maximal inhibition in [6] (SH-SY5Y cells) (IC50) required 294000 nM.

On to `CC(C(=O)c1ccc(O)cc1)N(C)CCCCc1ccccc1` (stereo not drawn) [5j, 1-(4-Hydroxyphenyl)-2-(methyl(4-phenylbutyl)amino)propan-1-one], for which the S2R/S1R selectivity ratio on S1R [1] is reported as 0.38. The inhibition constant Ki at S1R [1] (read-out: Ki S1R) is 121 ± 22 nM; on S2R [2], 45 ± 4 nM.

The molecule `CC(C(=O)c1ccc(O)cc1)N1CCN(Cc2ccccc2)CC1` (stereo not drawn) [5k, 2-(4-Benzylpiperazin-1-yl)-1-(4-hydroxyphenyl)propan-1-one] displayed a melting point of 58 to 59 °C. The “IC50 H2O2” value in data set [3] was 436.43 ± 1.17 µg/mL (≈ 1350 µM). At S1R [1], the Ki stood at 19 ± 2 nM and the S2R/S1R selectivity ratio worked out at 6.8. The Ki at S2R [2] (read-out: Ki S2R) came out at 129 ± 23 nM. For the same molecule, the “effect on NRF2 expression (in words)” value in data set [4] is recorded as “significant decrease”. The “effect on SOD1 expression (in words)” value in data set [5] is “dramatically reduced”. The molecule further returned an IC50 in [6] (SH-SY5Y cells) of 132000 nM.

On to `CC(C(=O)c1ccc(O)cc1)N1CCN(c2ccccc2)CC1` (stereo not drawn) [5l, 2-(4-Phenylpiperazin-1-yl)-1-(4-hydroxyphenyl)propan-1-one], for which the melting point was 163 to 165 °C. On S1R [1], the S2R/S1R selectivity ratio was 0.18. Moreover, the Ki on S1R [1] (read-out: Ki S1R) worked out at 785 ± 226 nM. Moreover, at S2R [2] (read-out: Ki S2R), the Ki amounted to 147 ± 17 nM.

Regarding `CC(C(O)c1ccccc1)N(C)CCCCc1ccccc1` (stereo not drawn) [5m, 2-(Methyl(4-phenylbutyl)amino)-1-phenylpropan-1-ol], on S1R [1], the Ki turned out to be 37 ± 10 nM and the S2R/S1R selectivity ratio came to 0.81. Further, the Ki at S2R [2] came out at 30 ± 8 nM.

In the case of `COc1ccc(C(O)C(C)N(C)CCCCc2ccccc2)cc1` (stereo not drawn) [5n, 1-(4-Methoxyphenyl)-2-(methyl(4-phenylbutyl)amino)propan-1-ol], at S1R [1], the affinity corresponds to a Ki of 38 ± 9 nM and the S2R/S1R selectivity ratio came out at 13. The Ki on S2R [2] (read-out: Ki S2R) turned out to be 479 ± 93 nM.

On to `COc1ccc(C(O)C(C)N2CCCN(Cc3ccccc3)CC2)cc1` (stereo not drawn) [5o, 2-(4-Benzyl-1,4-diazepan-1-yl)-1-(4-methoxyphenyl)propan-1-ol], for which the “IC50 H2O2” value in data set [3] was 12.13 ± 0.25 µg/mL (≈ 34.2 µM). The “IC50 ABTS” value in “ABTS radical scavenging” was 2.481 ± 0.05 µg/mL (≈ 7 µM). Further, the S2R/S1R selectivity ratio at S1R [1] was 32. In addition, the figures for the inhibition constant Ki on S1R [1] (read-out: Ki S1R) and at S2R [2] (read-out: Ki S2R) were 4.2 ± 0.6 nM and 128 ± 26 nM, respectively. Further, the “effect on NRF2 expression (in words)” value in data set [4] is recorded as “significant decrease”. Also, the “effect on SOD1 expression (in words)” value in [5] was “dramatically reduced”. In data set [6] (SH-SY5Y neuroblastoma cells), this molecule returned an IC50 of 118000 nM.

With `COc1cc2c(cc1OC)C(=O)C(CC1CCN(Cc3ccccc3)CC1)C2` (stereo not drawn) [Donepezil], at S1R [7] (donepezil), the Ki was 14.6 nM.

`O=C(CCCN1CCC(O)(c2ccc(Cl)cc2)CC1)c1ccc(F)cc1` [Haloperidol, reference compound]: the “effect on NRF2 expression (in words)” value in data set [4] was “did not cause significant changes”. In addition, in [5], the “effect on SOD1 expression (in words)” value is “did not cause significant changes”. The molecule further displayed an IC50 in data set [6] (SH-SY5Y neuroblastoma cells) of 23000 nM.

Consider `CC(C(O)c1ccc(O)cc1)N1CCC(Cc2ccccc2)CC1` (stereo not drawn) [Ifenprodil], for which the Ki is 98 ± 34 nM on S2R [8] and 125 ± 24 nM at S1R [7] (ifenprodil, Table 2 footnote b). In the data set with S1R [9], the S2R/S1R selectivity ratio turned out to be 0.75.

Molecule `CCCN(CCC)CCc1ccc(OC)c(OCCc2ccccc2)c1` [NE100, reference compound] returned an IC50 in the data set with SH-SY5Y cells of 49000 nM.

In data set [6] (SH-SY5Y neuroblastoma cells), `Fc1ccc(-n2cc(CCCCN3CCC4(CC3)OCc3ccccc34)c3ccccc32)cc1` [Siramesine, reference compound] displayed an IC50 of 2000 nM.

As to `Cc1c(C)c2c(c(C)c1O)CCC(C)(C(=O)O)O2` (stereo not drawn) [Trolox, 6-hydroxy-2,5,7,8-tetramethylchroman-2-carboxylic acid, reference compound], the “IC50 H2O2” value in data set [3] was 15.69 ± 0.69 µg/mL (≈ 62.7 µM). In addition, the “IC50 ABTS” value in the data set “ABTS radical scavenging” came to 2.365 ± 0.19 µg/mL (≈ 9.45 µM).
